Measurements: patent publication US10301292B2, “Bicyclic compound” (Takeda Pharmaceutical Company Limited, priority 2014, dated 2019)

Key:
HCT116 cells = test: Growth inhibitory activity on HCT116 cell (CellTiter-Glo); type: cell-based; settings: table head: 10 μM (text b2498: 1 μM), 3 days incubation; for inhibition at 10 µM: Homo sapiens, HCT-116, 72 h, read-out: HCT116 cell proliferation inhibitory rate (%) at 10 μM
Experimental: The growth inhibitory activity of the compound on HCT116 cell was evaluated by the following method.
HCT116 cells were seeded in a 384 well blackplate at 900 cells/30 μL/well, and maintained in an RPMI medium (Wako)) containing an assay medium (2% fetal bovine serum, 50 Unit/mL penicillin, 50 μg/mL streptomycin (Invitrogen). The next day, a test compound dissolved in dimethyl sulfoxide (DMSO) was diluted with the assay medium, and the obtained compound solution was added by 10 μL to each well of a plate containing HCT116 cells and incubated at 37° C., 5% CO2 (test compound addition group).
A similar reaction was performed without adding a test compound (test compound non-addition group).
Furthermore, a similar reaction was performed under the conditions without adding HCT116 cell and a test compound (control group).
After 3 days, 20 μL of a CellTiter-Glo reagent (Promega KK) was added to the well, and the mixture was stirred for 10 min. Thereafter, the luminescence value of each well was measured by the EnVision™ multilabel counter (Perkin Elmer Inc.).
The HCT116 cell proliferation inhibitory rate (%) of the test compound was determined by the following calculation formula. (1−(luminescence of test compound addition group−luminescence of control group)÷(luminescence of test compound nonaddition group−luminescence of control group))×100

human ACC1 = target: T1, human ACC1 (Homo sapiens, UniProt Q13085); test: Measurement of ACC1 inhibitory activity (Malonyl-CoA production, RapidFire-mass spectrometry); type: biochemical; settings: 10 μM of the test compound, recombinant human ACC1; for inhibition at 10 µM: read-out: ACC1 inhibitory rate (%) at 10 μM
T1 construct: His tag (from vector pFAST-BacHTc; protein captured on Ni-NTA) (N); made in house; host or cells: SF-9 insect cells, recombinant baculovirus BAC-ACC1
Experimental: (1) Cloning of Human ACC1 Gene and Preparation of Recombinant Baculovirus
Human ACC1 gene was cloned by PCR using a human liver cDNA library (Clontech) as a template and Primer 1 and Primer 2 shown below. Primer 1 and Primer 2 were prepared by adding SalI, NotI restriction enzyme recognition sequences based on the information of the base sequence of human ACC1 gene (Genbank Accession U19822).
PCR was performed using Pyrobest DNA polymerase (TAKARA BIO INC.). The obtained PCR product was cloned to pT7 Blue vector (Novagen) and after confirmation of the base sequence, digested with restriction enzymes SalI and XbaI. The obtained DNA fragment was inserted into pFAST-BacHTc (Invitrogen) digested with restriction enzymes SalI and XbaI to give expression plasmid ACC1/pFAST-BacHTc.
Using the expression plasmid ACC1/pFAST-BacHTc and BAC-TO-BAC Baculovirus Expression System (Invitrogen), virus stock BAC-ACC1 of recombinant Baculovirus was prepared.
(2) Preparation of ACC1 Protein
SF-9 cells (Invitrogen) were inoculated to a medium (10 L) for insect cells (Sf-900IISFM medium (Invitrogen) containing 5% fetal bovine serum (Trace), 50 mg/L Gentamicin (Wako Pure Chemical Industries, Ltd.), 0.1% Pluronic F-68 (Invitrogen)) at 1.0×10^6 cells/mL, and cultured with shaking in Wave Bioreactor (GE Healthcare) at 27° C., 20 rpm, rocking angle 10°, oxygen concentration 30%.
On day 2 of the culture, recombinant Baculovirus BAC-ACC1 was added, and the cells were cultured for 3 days. The culture medium was centrifuged at 4000×g for 10 min to give virus-infected cells. The cells were washed with phosphate buffered saline (Invitrogen) and centrifuged under the same conditions. The obtained cells were cryopreserved at −80° C.
The cryopreserved cells were thawed in ice and suspended in 800 mL of 25 mM HEPES buffer (pH 7.5) containing 10% Glycerol, 0.3 M NaCl, 1 mM EDTA, 25 mM Sodium β-Glycerophosphate and 1 mM Sodium Orthovanadate, and supplemented with Complete Protease Inhibitor (Roche). The obtained suspension was homogenized two times in a polytron homogenizer (Kinematica) at 20,000 rpm for 20 sec. The obtained cell disruption solution was clarified by centrifugation at 186,000×g for 60 min and the supernatant was passed through Ni-NTA Superflow Cartridges (5 mL) (QUIAGEN). Furthermore, it was washed with 25 mM HEPES buffer (pH 7.5) containing 20 mM Imidazole, 0.3 M NaCl, and eluted with 25 mM HEPES buffer (pH 7.5) containing 250 mM Imidazol, 0.3 M NaCl. The eluate was concentrated by Amicon Ultra-15 (Nihon Millipore K.K.) having a fraction molecular weight of 50K. The obtained concentrate was subjected to gel filtration with 50 mM HEPES buffer (pH 7.5) containing 10 mM MgCl2, 2 mM dithiothreitol, 10 mM tripotassium citrate, 0.3 M NaCl by using HiLoad 26/60 Superdex200 prep grade gel filtration column (GE Healthcare) to give ACC1. The obtained ACC1 was cryopreserved at −80° C.
(3) Measurement of ACC1 Inhibitory Activity
ACC1 obtained in the above-mentioned (2) was diluted with an enzyme reaction buffer (50 mM HEPES (pH 7.5), 10 mM MgCl2, 10 mM Tripottasium Citrate, 2 mM Dithiothreitol, 0.001% Fatty acid free BSA) to a concentration of 0.2 μg/ml, and the mixture was added to each well of a 384 well assay plate by 10 μl. A test compound dissolved in dimethyl sulfoxide (DMSO) was diluted with an enzyme reaction buffer and the resulting solution (5 μl) was added to each well. The mixture was incubated at room temperature for 60 min. Then, a substrate solution (50 mM KHCO3, 200 μM ATP, 200 μM Acetyl-CoA, 5 μl) was added to each well, and the mixture was reacted at room temperature for 30 min. The reaction was quenched by adding a reaction quenching liquid (1.3% formic acid, 0.2 μM Malonyl-^13C3-CoA) by 60 μL each to the obtained reaction mixtures (test compound addition group).
In addition, a reaction was performed in the same manner as above and without adding the test compound (test compound non-addition group). […]

Compound | inhibition at 10 µM (human ACC1) [%] | inhibition at 10 µM (HCT116 cells) [%] | also measured
CC(=O)NC(C)c1ccc2nc(N3CC(Oc4cccc(OCC5CC5)c4)C3)oc2c1 (centres unmarked) [Example 1, N-(1-(2-(3-(3-(cyclopropylmethoxy)phenoxy)azetidin-1-yl)-1,3-benzoxazol-6-yl)ethyl)acetamide] | 100 | – | HCT116 cell proliferation inhibitory rate (%) at 10 μM (HCT116 cells): 12%
CC(=O)NC(C)c1ccc2nc(N3CC(Oc4cccc(OCC5CC5)c4)C3)oc2c1 (centres unmarked) [Example 1b, N-(1-(2-(3-(3-(cyclopropylmethoxy)phenoxy)azetidin-1-yl)-1,3-benzoxazol-6-yl)ethyl)acetamide] | – | – | HCT116 cell proliferation inhibitory rate (%) at 10 μM (HCT116 cells): 32%; ACC1 inhibitory rate (%) at 10 μM (human ACC1; 10 µM): 96%
CC(=O)NC(C)c1ccc2nc(-c3ccc(Oc4cccc(OCC5CC5)c4)cc3)oc2c1 (centres unmarked) [Example 8, N-(1-(2-(4-(3-(cyclopropylmethoxy)phenoxy)phenyl)-1,3-benzoxazol-6-yl)ethyl)acetamide] | 95 | 42 | –
CC(=O)NC(C)c1ccc2nc(-c3ccc(Oc4cccc(OCC5CC5)c4)cn3)oc2c1 (centres unmarked) [Example 9, N-(1-(2-(5-(3-(cyclopropylmethoxy)phenoxy)pyridin-2-yl)-1,3-benzoxazol-6-yl)ethyl)acetamide] | 99 | 45 | –
CC(=O)NC(C)c1ccc2nc(-c3ccc(Oc4cccc(OCC5CC5)c4)cn3)oc2c1 (centres unmarked) [Example 9b, N-(1-(2-(5-(3-(cyclopropylmethoxy)phenoxy)pyridin-2-yl)-1,3-benzoxazol-6-yl)ethyl)acetamide] | – | – | HCT116 cell proliferation inhibitory rate (%) at 10 μM (HCT116 cells): 29%; ACC1 inhibitory rate (%) at 10 μM (human ACC1): 99%
CCCOc1cccc(Oc2ccc(-c3nc4ccc(C(C)NC(C)=O)cc4o3)nc2)c1 (centres unmarked) [Example 12, N-(1-(2-(5-(3-propoxyphenoxy)pyridin-2-yl)-1,3-benzoxazol-6-yl)ethyl)acetamide] | 94 | – | –
CCCCOc1cccc(Oc2ccc(-c3nc4ccc(C(C)NC(C)=O)cc4o3)nc2)c1 (centres unmarked) [Example 13, N-(1-(2-(5-(3-butoxyphenoxy)pyridin-2-yl)-1,3-benzoxazol-6-yl)ethyl)acetamide] | 86 | 19 | –
CCCCCc1cccc(OC2CN(c3nc4ccc(C(C)NC(C)=O)cc4o3)C2)c1 (centres unmarked) [Example 29, N-(1-(2-(3-(3-pentylphenoxy)azetidin-1-yl)-1,3-benzoxazol-6-yl)ethyl)acetamide] | 82 | – | –
CC(=O)NC(C)c1ccc2oc(-c3ccc(Oc4cccc(OCC5CC5)c4)cn3)cc2c1 (centres unmarked) [Example 31, N-(1-(2-(5-(3-(cyclopropylmethoxy)phenoxy)pyridin-2-yl)-1-benzofuran-5-yl)ethyl)acetamide] | 98 | 42 | –
CC(=O)NC(C)c1ccc2cc(-c3ccc(Oc4cccc(OCC5CC5)c4)cn3)oc2c1 (centres unmarked) [Example 35, N-(1-(2-(5-(3-(cyclopropylmethoxy)phenoxy)pyridin-2-yl)-1-benzofuran-6-yl)ethyl)acetamide] | 94 | 41 | –
CC(=O)NC(C)c1ccc2c(c1)CC(c1ccc(Oc3cccc(OCC4CC4)c3)cn1)O2 (centres unmarked) [Example 36, N-(1-(2-(5-(3-(cyclopropylmethoxy)phenoxy)pyridin-2-yl)-2,3-dihydro-1-benzofuran-5-yl)ethyl)acetamide] | 100 | – | –
CC(=O)NC(C)c1ccc2c(c1)CC(c1ccc(Oc3cccc(OCC4CC4)c3)cn1)O2 (centres unmarked) [Example 36b, N-(1-(2-(5-(3-(cyclopropylmethoxy)phenoxy)pyridin-2-yl)-2,3-dihydro-1-benzofuran-5-yl)ethyl)acetamide] | – | – | ACC1 inhibitory rate (%) at 10 μM (human ACC1; 10 µM): 101%
CC(=O)NC(C)c1ccc2nc(-c3ccc(Oc4cccc(OCC5CC5)c4)nc3)oc2c1 (centres unmarked) [Example 37, N-(1-(2-(6-(3-(cyclopropylmethoxy)phenoxy)pyridin-3-yl)-1,3-benzoxazol-6-yl)ethyl)acetamide] | 101 | 44 | –
CC(=O)NC(C)c1ccc2sc(N3CC(Oc4cccc(OCC5CC5)c4)C3)nc2c1 (centres unmarked) [Example 44, N-(1-(2-(3-(3-(cyclopropylmethoxy)phenoxy)azetidin-1-yl)-1,3-benzothiazol-5-yl)ethyl)acetamide] | 100 | 14 | –
CC(=O)NC(C)c1ccc2nc(-c3ncc(Oc4cccc(OCC5CC5)c4)cc3C)oc2c1 (centres unmarked) [Example 47, N-(1-(2-(5-(3-(cyclopropylmethoxy)phenoxy)-3-methylpyridin-2-yl)-1,3-benzoxazol-6-yl)ethyl)acetamide] | 82 | – | –
CC(=O)NC(C)c1cc2cc(-c3ccc(Oc4cccc(OCC5CC5)c4)cc3)ccc2o1 (centres unmarked) [Example 52, N-(1-(5-(4-(3-(cyclopropylmethoxy)phenoxy)phenyl)-1-benzofuran-2-yl)ethyl)acetamide] | 94 | 20 | –
CC(=O)NC(C)c1ccc2cn(-c3ccc(Oc4cccc(OCC5CC5)c4)cc3)nc2c1 (centres unmarked) [Example 56, N-(1-(2-(4-(3-(cyclopropylmethoxy)phenoxy)phenyl)-2H-indazol-6-yl)ethyl)acetamide] | 94 | – | –
CC(=O)NC(C)c1ccc2cc(-c3ccc(Oc4cccc(OCC5CC5)c4)nc3)oc2c1 (centres unmarked) [Example 67, N-(1-(2-(6-(3-(cyclopropylmethoxy)phenoxy)pyridin-3-yl)-1-benzofuran-6-yl)ethyl)acetamide] | 97 | 38 | –
CC(=O)NC(C)c1ccc2nc(-c3ccc(Oc4cccc(OCC5CC5)c4)cc3)oc2c1C (centres unmarked) [Example 93, N-(1-(2-(4-(3-(cyclopropylmethoxy)phenoxy)phenyl)-7-methyl-1,3-benzoxazol-6-yl)ethyl)acetamide] | 94 | – | –
CC(NC(N)=O)c1ccc2nc(-c3ccc(Oc4cccc(OCC5CC5)c4)nn3)oc2c1 (centres unmarked) [Example 110, 1-(1-(2-(6-(3-(cyclopropylmethoxy)phenoxy)pyridazin-3-yl)-1,3-benzoxazol-6-yl)ethyl)urea] | 98 | – | –
